Measured values reported in patent US9222016B2, “Compound having fluorescent chromophore, ion concentration sensor including compound, reagent including compound, reagent kit provided with reagent, precursor of compound, and method for synthesizing compound” (National University Corporation Hokkaido University, priority 2011, dated 2015).

Experiment: Fluorescence of disubstituted product (Example 7)
Assay type: physicochemical
Details: CH2Cl2 solution, excitation wavelength 370 nm
Description: Disubstituted products other than the disubstituted product represented by the chemical formula 20 are synthesized by the same method as the disubstituted product represented by the chemical formula 20. The numerical values in Table 4 and Table 5 were obtained in CH2Cl2 solution under a condition of an excitation wavelength of 370 nm

With Cn1c(-c2ccc(C#N)cc2)cn2ccc[n+]12 [Compound 1h] the “λabs (absorption wavelength)” value was 381 nm.

With Cn1c(-c2ccc(C#N)cc2)cn2ccc[n+]12 [Compound 1h] the “λem (fluorescence wavelength)” value was 509 nm.

In the case of Cn1c(-c2ccc(C#N)cc2)cn2ccc[n+]12 [Compound 1h], the “φF (quantum yield)” value is reported as 0.18.

Experiment: Maximum absorption wavelength, maximum fluorescence wavelength and fluorescence quantum yield (Example 6)
Assay type: physicochemical
Details: same manner as Example 3
Method: (§1) Each of the above compounds was made into solution with concentration shown in Table 2 using dichloromethane as a solvent. […] The concentration of a sample solution was adjusted such that the intensity (Abs.) of absorption maximum wavelength was 0.100±0.005, and using a spectrophotometer (manufactured by Hitachi High-Technologies Corporation, U-3500), each fluorescence spectrum was measured with excitation wavelength (λex)=326 nm to 412 nm that was equal to absorption maximum wavelength. The fluorescence quantum yield was determined using 9,10-bis(phenyl ethynyl)anthracene (absolute fluorescence quantum yield=0.96) as a standard substance.
For each of the compounds shown in Table 3, the maximum absorption wavelength (λabs^max), maximum fluorescence wavelength (λem^max), and fluorescence quantum yield (ΦF) were measured. Further, the Hammett constant (σp) of substituent group was together described in Table 3. In Table 3, “-” represents no measurement data available. The measurement of the absorption wavelength, fluorescence wavelength, and fluorescence quantum yield was carried out in the same manner as described in Example 3. Here, a method of synthesizing compounds of 1o^a and 1r will be later described in Example 8. Compounds of 1e, 1n, 1f, 1g, 1l, 1k, 1h, and 1m, which are shown in Table 3 were synthesized by the method and condition described in Examples 1 to 2. Further, the compound 1a shown in Table 3 was synthesized under the under the same condition as in Example 1 and Example 2 except that a CO2CH3 part in the chemical formula 13 of the reaction formula (5) was replaced with a hydrogen atom. Thereby, the compound 1a having a triazapentalene backbone whose R^5 position was bound with the hydrogen atom was obtained.

In order of falling “λabs^max (maximum absorption wavelength)” value:
1. Cn1c(-c2ccc([N+](=O)[O-])cc2)cn2ccc[n+]12 [Compound 1m]  412 nm
2. Cn1c(-c2ccc(C#N)cc2)cn2ccc[n+]12 [Compound 1h]  381 nm
3. COC(=O)c1ccc(-c2cn3ccc[n+]3n2C)cc1 [Compound 1k]  376 nm
4. COc1ccc(-c2cn3ccc[n+]3n2C)cc1 [Compound 1n]  330 nm

In order of falling “λem^max (maximum fluorescence wavelength)” value:
1. Cn1c(-c2ccc([N+](=O)[O-])cc2)cn2ccc[n+]12 [Compound 1m]  556 nm
2. COC(=O)c1ccc(-c2cn3ccc[n+]3n2C)cc1 [Compound 1k]  510 nm
3. Cn1c(-c2ccc(C#N)cc2)cn2ccc[n+]12 [Compound 1h]  509 nm
4. COc1ccc(-c2cn3ccc[n+]3n2C)cc1 [Compound 1n]  413 nm

In order of rising “φF (fluorescence quantum yield)” value:
1. COc1ccc(-c2cn3ccc[n+]3n2C)cc1 [Compound 1n]  0.062
2. Cn1c(-c2ccc([N+](=O)[O-])cc2)cn2ccc[n+]12 [Compound 1m]  0.16
3. Cn1c(-c2ccc(C#N)cc2)cn2ccc[n+]12 [Compound 1h]  0.18
4. COC(=O)c1ccc(-c2cn3ccc[n+]3n2C)cc1 [Compound 1k]  0.51

Experiment: Fluorescence spectrum measurement of triazapentalenes (Example 3)
Assay type: physicochemical
Details: dichloromethane solution
Method: The fluorescence spectrum of various triazapentalenes that have been synthesized by the same method as described in Example 1 and Example 2 was measured. A method for measurement will be specifically described below.
As triazapentalenes, compounds with the substituent group being a phenyl group, methoxyphenyl group, 2-cyanophenyl group, methoxycarbonylphenyl group, methyl ester group, diphenyl group, 3-cyanophenyl group, and nitrophenyl group were used.
as §1
In FIG. 1 and Table 2, with regard to a substituent group, Ph represents a phenyl group, Me represents a methyl group, CO2Me represents a methyl ester group, OMe represents a methylalkoxy group, and CN represents a cyano group. Further, in Table λex represents excitation wavelength, ε represents a molar extinction coefficient, λem represents emission wavelength, φr represents a relative fluorescence quantum yield using 9,10-bis(phenyl ethynyl)anthracene (absolute fluorescence quantum yield=0.96) as a standard, and “−” represents no measurement data available.

With Cn1c(-c2ccccc2)cn2ccc[n+]12 [Compound 1f] the “ε (molar extinction coefficient)” value was 3.82 10^3 cm − M^−1.
For COc1ccc(-c2cn3ccc[n+]3n2C)cc1 [Compound 1n], the “ε (molar extinction coefficient)” value was 5.70 10^3 cm − M^−1.
With Cn1c(-c2ccc(C#N)cc2)cn2ccc[n+]12 [Compound 1h] the “ε (molar extinction coefficient)” value was 2.85 10^3 cm − M^−1.
For COC(=O)c1ccc(-c2cn3ccc[n+]3n2C)cc1 [Compound 1k], the “ε (molar extinction coefficient)” value was 3.02 10^3 cm − M^−1.

In order of falling “λex (excitation wavelength, equal to absorption maximum wavelength λmax)” value:
1. Cn1c(-c2ccc([N+](=O)[O-])cc2)cn2ccc[n+]12 [Compound 1m]  412 nm
2. Cn1c(-c2ccc(C#N)cc2)cn2ccc[n+]12 [Compound 1h]  381 nm
3. COC(=O)c1ccc(-c2cn3ccc[n+]3n2C)cc1 [Compound 1k]  376 nm
4. COc1ccc(-c2cn3ccc[n+]3n2C)cc1 [Compound 1n]  330 nm
5. Cn1c(-c2cccc(C#N)c2)cn2ccc[n+]12  330 nm
6. Cn1c(-c2ccccc2)cn2ccc[n+]12 [Compound 1f]  326 nm

For Cn1c(-c2ccc(C#N)cc2)cn2ccc[n+]12 [Compound 1h], the “fluorescence intensity (FIG. 1)” value was “stronger fluorescence intensity”.

Same assay, conditions: dichloromethane solution; excitation at absorption maximum

In order of rising “λem (emission wavelength)” value:
1. COc1ccc(-c2cn3ccc[n+]3n2C)cc1 [Compound 1n]  413 nm
2. Cn1c(-c2ccccc2)cn2ccc[n+]12 [Compound 1f]  419 nm
3. Cn1c(-c2cccc(C#N)c2)cn2ccc[n+]12  481 nm
4. Cn1c(-c2ccc(C#N)cc2)cn2ccc[n+]12 [Compound 1h]  509 nm
5. COC(=O)c1ccc(-c2cn3ccc[n+]3n2C)cc1 [Compound 1k]  510 nm
6. Cn1c(-c2ccc([N+](=O)[O-])cc2)cn2ccc[n+]12 [Compound 1m]  556 nm

Same assay, conditions: dichloromethane; standard 9,10-bis(phenyl ethynyl)anthracene (0.96)

In order of falling “φr (relative fluorescence quantum yield)” value:
1. COC(=O)c1ccc(-c2cn3ccc[n+]3n2C)cc1 [Compound 1k]  51%
2. Cn1c(-c2ccc(C#N)cc2)cn2ccc[n+]12 [Compound 1h]  18%
3. Cn1c(-c2ccc([N+](=O)[O-])cc2)cn2ccc[n+]12 [Compound 1m]  16%
4. COc1ccc(-c2cn3ccc[n+]3n2C)cc1 [Compound 1n]  6.2%
5. Cn1c(-c2ccccc2)cn2ccc[n+]12 [Compound 1f]  3.0%

Experiment: Solvatochromic fluorescence of triazapentalenes in various solvents (Example 4)
Assay type: physicochemical
Details: dichloromethane, acetonitrile, benzene, acetone solutions
Method: The fluorescence of a triazapentalene compound whose substituent group was -PhCN was measured in various solvents. A method for measurement will be specifically described below.
As solvents, dichloromethane (manufactured by Junsei Chemical Co., Ltd.), acetonitrile (manufactured by Kanto Chemical Co., Inc.), benzene (manufactured by Nacalai Tesque, Inc.), and acetone (manufactured by Nacalai Tesque, Inc.) were individually used.
Each of the triazapentalene compound whose substituent group was -PhCN was dissolved in the above solvent. With regard to the concentration of each solution, the concentration of solution with dichloromethane being used as the solvent was 5.81×10^−6 mol/L, the concentration of solution with acetonitrile being used as the solvent was 3.65×10^−6 mol/L, the concentration of solution with benzene being used as the solvent was 5.43×10^−6 mol/L, and the concentration of solution with acetone being used as the solvent was 6.63×10^−6 mol/L. Using a […] (manufactured by Hitachi High-Technologies Corporation, F-4500), the ultraviolet absorption spectrum was measured, and the absorption maximum wavelength (λmax) was determined to be 382 nm. […] The fluorescence quantum yield was determined using 9,10-bis(phenyl ethynyl)anthracene (absolute fluorescence quantum yield=0.96) as a standard substance.

For Cn1c(-c2ccc(C#N)cc2)cn2ccc[n+]12 [Compound 1h], the “absorption maximum wavelength (λmax)” value was 382 nm.

Same assay, conditions: dichloromethane, acetonitrile, benzene, acetone; λex 382 nm

With Cn1c(-c2ccc(C#N)cc2)cn2ccc[n+]12 [Compound 1h] the “solvatochromism of fluorescence spectrum (FIG. 2)” value was “significant solvatochromism was observed”.

Experiment: not given
Details: substituent at R^5; cited from earlier work

In order of falling “Hammett σP of substituent group” value:
1. Cn1c(-c2ccc([N+](=O)[O-])cc2)cn2ccc[n+]12 [Compound 1m]  0.81
2. Cn1c(-c2ccc(C#N)cc2)cn2ccc[n+]12 [Compound 1h]  0.71
3. COC(=O)c1ccc(-c2cn3ccc[n+]3n2C)cc1 [Compound 1k]  0.47
4. Cn1c(-c2ccccc2)cn2ccc[n+]12 [Compound 1f]  0.00
5. COc1ccc(-c2cn3ccc[n+]3n2C)cc1 [Compound 1n]  −0.28

Experiment: not given
Details: standard substance; cited from earlier work

For C(#Cc1c2ccccc2c(C#Cc2ccccc2)c2ccccc12)c1ccccc1 [9,10-bis(phenylethynyl)anthracene], the “absolute fluorescence quantum yield” value is listed as 0.96.
